# Tests used:
# Format in all cases: cell-based
# Staphylococcus aureus = test: agar plate disc-diffusion, antibacterial inhibition zone; settings: nutrient agar, 37° C., 48 hours
# Description: (§1) The agar plate disc-diffusion method was applied. […] The discs were then placed onto the surface of agar plates (nutrient agar for bacteria and Sabouraud's dextrose agar for fungi) seeded with the test organism. Each plate contained 15 mL of the agar medium, previously seeded with 0.2 mL of the broth culture of each organism pregrown for 18 hours. The plates were incubated at 37° C. for 48 hours, and 72 hours for fungi. The inhibition zones were measured in mm. Discs impregnated with DMSO were used as a control, and its inhibition zone was subtracted from the tested compound actual inhibition zone.
# Escherichia coli = test: as above; settings: nutrient agar, 37° C., 48 hours
# Description: as §1
# Pseudomonas aeruginosa = test: as above; settings: nutrient agar, 37° C., 48 hours
# Description: as §1
# Bacillus cereus = test: as above; settings: nutrient agar, 37° C., 48 hours
# Description: as §1
# [1] = test system: Chrysosporium keratinophilum; test: agar plate disc-diffusion, antifungal inhibition zone; settings: Sabouraud's dextrose agar, 72 hours
# Description: as §1
# Aspergillus flavus = test: as above; settings: Sabouraud's dextrose agar, 72 hours
# Description: as §1
# [2] = A = concentration of comp. = 10,000 μL
# [3] = B = concentration of comp. = 30,000 μL
# [4] = C = concentration of comp. = 50,000 μL
smiles,measurement,setting,value
"CCOC(=O)CCSc1nnc(-c2cccc(F)c2)n1-c1ccccc1 [III, ethyl 3-(5-(3-fluorophenyl)-4-phenyl-4H-1,2,4-triazol-3-ylthio)propanoate]","inhibition zone, Staphylococcus aureus, A",Staphylococcus aureus; [2],17 mm
same,"inhibition zone, Staphylococcus aureus, B",Staphylococcus aureus; [3],21 mm
same,"inhibition zone, Staphylococcus aureus, C",Staphylococcus aureus; [4],30 mm
same,"inhibition zone, Escherichia coli, A",Escherichia coli; [2],27 mm
same,"inhibition zone, Escherichia coli, B",Escherichia coli; [3],36 mm
same,"inhibition zone, Escherichia coli, C",Escherichia coli; [4],53 mm
same,"inhibition zone, Pseudomonas aeruginosa, A",Pseudomonas aeruginosa; [2],26 mm
same,"inhibition zone, Pseudomonas aeruginosa, B",Pseudomonas aeruginosa; [3],29 mm
same,"inhibition zone, Pseudomonas aeruginosa, C",Pseudomonas aeruginosa; [4],46 mm
same,"inhibition zone, Bacillus Cereus, A",Bacillus cereus; [2],25 mm
same,"inhibition zone, Bacillus Cereus, B",Bacillus cereus; [3],28 mm
same,"inhibition zone, Bacillus Cereus, C",Bacillus cereus; [4],38 mm
same,"inhibition zone, Chrysosporium keratinophilum, A",[1]; [2],26 mm
same,"inhibition zone, Chrysosporium keratinophilum, B",[1]; [3],28 mm
same,"inhibition zone, Chrysosporium keratinophilum, C",[1]; [4],46 mm
same,"inhibition zone, Aspergillus flavus, A",Aspergillus flavus; [2],25 mm
same,"inhibition zone, Aspergillus flavus, B",Aspergillus flavus; [3],28 mm
same,"inhibition zone, Aspergillus flavus, C",Aspergillus flavus; [4],34 mm
